Here are results for two compounds from patent US20090105118A1, “Preparation and applications of novel complexes made by gamma-polyglutamic acid and cisplatin” (priority 2007, published 2009).

One series relates to Lung cancer cells. Particulars: mice; PG-TXL injected at 120 mg/kg; paclitaxel used alone; cited from earlier work.
The nature of series [1]: In vivo toxicity study in healthy mice (survival, body weight). Particulars: Kun Ming mice, 5 mg/kg tail vein at 0, 5 and 10 days. As to the method: 20 healthy Kun Ming mice were randomly divided (10 each for male and female) into two groups. Cisplatin and γ-PGA-CDDP was individually injected in each group in a tail vein. The injections were done at 0, 5, and 10 days at 5 mg/kg. The survival and body weight of the mice were recorded. The results are shown in FIG. 10 and FIG. 11 which are comparisons of the toxicity of γ-PGA-CDDP and CDDP based on the survival of China KM mice and based on the body weight of China KM mice.

The subject of series [2] is Human breast cancer cells Bcap-37. Description: Bcap-37 xenograft model, survival and body weight. The class given is in vivo, BALB/C female SKID mouse. As to conditions: Bcap-37 xenograft mice, equivalent of 4 mg/kg cisplatin, tail vein at 0 and 5 days. As to the method: Human breast cancer cells Bcap-37 in DMEM with 10% […] were cultured at 37° C. and 5% CO2. 5×10^6 Bcap cells were injected in each of BALB/C female SKID mouse (18 mice, 4 week old, 20 g each). After 7 days the mice were randomly divided into 3 groups, 6 mice per group. The first group was treated with saline, the second group was treated with cisplatin, and the third group was treated with γ-PGA-CDDP. γ-PGA-CDDP complex (at equivalent of 4 mg/kg cisplatin) was injected in a tail vein at 0 and 5 days. The survival and body weight was recorded. The results are shown in FIG. 12 and FIG. 13 which are comparisons of the toxicity of γ-PGA-CDDP and CDDP based on the survival and body weight of BALB/C female mice.

`CC(=O)O[C@H]1C(=O)[C@@]2(C)[C@H]([C@H](OC(=O)c3ccccc3)[C@]3(O)C[C@H](OC(=O)[C@H](O)[C@@H](NC(=O)c4ccccc4)c4ccccc4)C(C)=C1C3(C)C)[C@]1(OC(C)=O)CO[C@@H]1C[C@@H]2O` [paclitaxel]: in the series with Lung cancer cells, the “reduction of lung cancer cells” value is reported as 58%.
Regarding “cis-daimminedichloroplatinum(II) [cisplatin]”, the “body weight change (in vivo toxicity)” value in series [1] is on record as “reduced”. For the same compound, in series [1] (after 15 days), the mice died turned out to be 90%. For the same compound, the “body weight change (toxicity)” value in series [2] was “obvious decrease of body weight”.
